The values that follow come from US20010016590A1, “Use of hydroxymatairesinol for prevention of cancers, non-cancer, hormone dependent diseases and cardiovascular diseases by hydroxymatairesinol, and a pharmaceutical preparation, food additive and food product comprising hydroxymatairesinol” (priority 1999, published 2001).

One assay deals with T1, aromatase (Homo sapiens, UniProt P11511).
T1 construct: 800 μl cell suspension (1 million cells); endogenous in cells; host or cells: JEG-3 human choriocarcinoma cells
T1 sequence (P11511 1-503): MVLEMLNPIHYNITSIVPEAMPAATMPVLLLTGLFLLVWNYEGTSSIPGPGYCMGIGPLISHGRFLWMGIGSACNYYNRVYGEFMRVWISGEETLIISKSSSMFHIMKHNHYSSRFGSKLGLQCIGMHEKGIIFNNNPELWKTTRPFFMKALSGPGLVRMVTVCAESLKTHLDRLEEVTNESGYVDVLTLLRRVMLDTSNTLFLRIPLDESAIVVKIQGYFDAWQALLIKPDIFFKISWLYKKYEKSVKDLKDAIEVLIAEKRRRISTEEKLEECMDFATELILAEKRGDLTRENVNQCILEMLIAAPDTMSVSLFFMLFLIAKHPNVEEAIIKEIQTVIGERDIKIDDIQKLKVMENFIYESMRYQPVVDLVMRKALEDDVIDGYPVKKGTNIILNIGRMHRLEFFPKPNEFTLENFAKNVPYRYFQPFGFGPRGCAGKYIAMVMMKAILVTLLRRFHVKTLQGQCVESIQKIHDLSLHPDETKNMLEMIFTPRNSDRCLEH
Description: Aromatase inhibiting capacity in JEG-3 cells. It counts as cell-based. To be noted: FIG. 1, enterolactone within 1.0 to 10.0 μM. As to the method: The effects of HMR and structurally related lignans (enterolactone, enterodiol and 7-hydroxyenterolactone) were studied on formation of ^3H-17β-estradiol from ^3H-andostenedione in JEG-3 cells, human choriocarcinoma cell line. […] Cells were maintained in DMEM containing 10% fetal calf serum (FCS). The incubation mixture contained 50 μl ^3H-androst-4-ene, 3,17-dione (0.5 nM), 50 μl unlabelled androstenedione (0.5 nM), 100 μl test compounds (10 mM) and 800 μl cell suspension (1 million cells). After the incubation for 4 h, unlabelled carriers (androstenedione, testosterone, 17β-estradiol and estrone) were added. The steroids were extracted twice with 3.0 ml dichloromethane. […] The column system consisted of a guard column followed by a C18 150×3.9 mm ID analytical column (Technopak 10 C18 HPLC Technology; Wellington House, Cheshire, UK). The mobile phase was acetonitrile /water (35/65) and the flow rate was 1.2 ml/min. For in-line detection of the radioactive metabolites, the eluent of the HPCL column was continuously mixed with liquid scintillant and then monitored with in-line radioactivity detector.

The subject of another assay is MCF-7 cells. Description: Estrogenic and antiestrogenic activity in MCF-7 cell proliferation assay. It is filed as cell-based, human. To be noted: FIG. 2. As to the method: The MCF-7 cell line (human breast cancer cells) stock cultures were grown in phenol red free RPMI medium supplemented with 5 % FCS, 100 U/ml penicillin and 100 μg/ml streptomycin, 10 μg/ml insulin and 1 nM 17μ-estradiol in T-75 cell culture bottles. The medium was replaced with fresh ones three times per week. The stock cultures were harvested by trypsinization and suspended in 10 ml phenol red free versene solution and centrifuged for 5 min 800 rpm. The cell pellet was carefully resuspended into RPMI medium supplemented with 5% dextran charcoal stripped FCS (dcFCS) and seeded on 6 well plates 50 000 cells/ 3.0 ml medium/ well. On the second day of culture the medium was changed and test compounds were added. To test the estrogenicity of the lignan compounds, they were diluted in ethanol and added to cell cultures in final concentration of […]. In each proliferation assay 1.0 nM 1 7β-estradiol solution in ethanol was used as a positive control for estrogenic response. Equal amounts of ethanol were added to control wells. To test the antiestrogenicity both 17β-estradiol and lignan solutions were added to cell cultures. The cells were cultured for 5 to 7 days in the presence of test compounds, and the medium was changed every second day. Cell proliferation was quantified by counting the released nuclei with Coulter counter.

Assay [1] concerns uterine growth of immature rats. Description: Immature rat uterotropic test. To be noted: 7 days treatment, FIG. 3. It counts as in vivo. The protocol: The estrogenicity HMR was evaluated by the uterotropic assay in immature rats which was performed as described earlier (Jordan et al. 1977), with the exception of treatment time which was 7 days instead of 3 days in the reference study. The treatment time was longer because of the expected weak estrogenicity of the test compound. The treatment of immature rats with an aromatase inhibitor (MPV-2213ad), which prevents biosynthesis of estradiol, was used as a methodological control for non-estrogen-stimulated uterus.

Assay [2] relates to intact Noble strain male rats. Description: Estrogenic (antiandrogenic) activity in intact adult male rats. It is filed as in vivo, rat. The protocol: (§1) Estrogenic (anfiandrogenic) and antiestrogenic effects of HMR were studied in intact and hypoandrogenic Noble strain male rats (age 6-9 month), correspondingly. The chronic hypoandrogenic state with both structural and functional changes in the male reproductive tract was induced by neonatal estrogenization (diethylstilbestrol, 10.0 μg/kg body weight in rape oil s.c. on postnatal days 1-5). These changes are known to be partly reversible by aromatase inhibitor treatment consisting daily dose of MPV-2213 ad 10-30 mg/kg body weight (Streng et al. unpublished observations).
(§2) Twelve of both intact and hypoandrogenic animals were cavaged in daily dosage of HMR 50 mg/kg body weight in rape oil. Another twelve animals from both animal models were cavaged with rape oil only as a placebo treatment. After four-week treatment the animals were sacrificed. The weights of testis and accessory sex glands (ventral prostate, seminal vesicles and coagulating gland) were measured. Serum and testis testosterone and pituitary and serum luteinizing hormone (LH) levels were measured by immunoassays (Haavisto et al. 1993).

Assay [3] concerns hypoandrogenic Noble strain male rats. Description: Antiestrogenic activity in hypoandrogenic (neonatally estrogenized) adult male rats. It is filed as in vivo, rat. To be noted: hypoandrogenic animals. The protocol: as §1, §2
Assay [4] relates to DMBA-induced mammary gland tumors. Description: Antitumor activity in rat DMBA-induced mammary cancer model. It is filed as in vivo. The protocol: Antitumor activity of HMR in rat mammary cancer was studied as described earlier ([…] et al. 1986). Fifty-day-old female Sprague-Dawley rats were given 12.0 mg DMBA (dimethylbentz[a]anthracene) by […]. After approximately 6 weeks palpable tumors could be detected, whereafter the width (w) and the length (1) of the tumors were measured once a week to determine the tumor volumes according to a formula V=(πw^21)/12. The rats were also weighed once a week. The rats were allocated in 3 different groups so that the total number of tumors in the beginning of the experiment was similar in each group: (1) Control group 8 animals, (2) HMR 3.0 mg/kg 7 animals, and (3) HMR 15.0 mg/kg 7 animals, one of which had to be killed before the end of the experiment. HMR was given per os starting 9 weeks after the DMBA-induction, i.e. 3 weeks after palpable tumors appeared, and was given daily for 7.5 weeks. At the end of the experiment the tumors were classified in groups according to their growth pattern: 1. Growing tumors (PD=progressive disease); 2. Non-growing, stabilized tumors (SD=stabilized disease, no change in tumor volume or regression less than 75%; 3. Regressing tumors (PR=partial response, regression of tumor volume more than 75%); 4. Disappeared tumors (CR=complete response, no palpable tumor).

Another assay has as its system uterine weight. Particulars: feeding during pregnancy and lactation to rats; not evident at later stages; Tou et al. 1998; cited from earlier work.
The subject of assay [5] is antiestrogen-sensitive DMBA-induced breast cancer. Particulars: supplementation of a high-fat diet; flaxseed flour 5% or 10%; Serraino and Thompson; Thompson et al.; cited from earlier work.
Assay [6] deals with chemically induced aberrant crypts in rat colon. Particulars: Serraino and Thompson 1992, Jenab and Thompson 1996; cited from earlier work.
The mark [7] stands for this setting: intact animals, 50 mg/kg HMR, four week exposure, mean.

Consider `O=C1OCC(Cc2cccc(O)c2)C1Cc1cccc(O)c1` (stereo not shown) [enterolactone, 2,3-bis-(3’-hydroxybenzyl)-butyrolactone], for which, at aromatase, the “Inhibition of 3H-17β-estradiol formation from 3H-androstenedione (aromatization)” value was “dose-dependent inhibition”.
Still for that read-out and setting: under `OCC(Cc1cccc(O)c1)C(CO)Cc1cccc(O)c1` (stereo not shown) [enterodiol, 2,3-bis-(3’-hydroxybenzyl)-butane-1,4-diol] stands “noninhibitory”.
On the same count and under the same terms, under `O=C1OC[C@H](Cc2cccc(O)c2)[C@H]1[C@@H](O)c1cccc(O)c1` [7-hydroxyenterolactone] stands “no inhibitory effects”.
Consider `COc1cc(CC2C(=O)OCC2C(O)c2ccc(O)c(OC)c2)ccc1O` (stereo not shown) [HMR, hydroxymatairesinol], for which, on aromatase, the “Inhibition of 3H-17β-estradiol formation from 3H-androstenedione (aromatization)” value was “no inhibitory effects”. The “Estrogenic or antiestrogenic activity in MCF-7 cell proliferation” value in the assay with MCF-7 cells is “very weak, not statistically significant”. Further, the “Estrogenic effect on the uterine weight gain” value in assay [1] is “no significant estrogenic effect”. For the same molecule, the “Changes in the weights of accessory sex glands and testis vs placebo” value in assay [2] (control (intact) animals, 4-week treatment) is listed as “no significant changes”; in assay [3] (4-week treatment), “no significant changes”. Moreover, the Pituitary LH is 6.84 µg/pit in [2] (setting [7]) and 7.53 µg/pit in assay [3] (50 mg/kg HMR, four week exposure, mean). Also, the Serum LH in [2] (setting [7]) was found to be 1.09 ng/mL. The same molecule showed a Serum testosterone in assay [2] (setting [7]) of 2.77 ng/mL. Further, the “Changes in testosterone or LH concentrations vs placebo” value in [2] (intact animals, 4-week treatment) was “no significant changes”; in assay [3] (4-week treatment), “no significant changes”. In addition, the “Dose-dependency of antitumor action” value in assay [4] (3.0 vs 15.0 mg/kg) is reported as “no clear dose-dependency”. Further, the “Antitumor effect (growing PD versus SD, PR, CR tumors)” value in assay [4] (HMR 3.0 and 15.0 mg/kg per os daily for 7.5 weeks, FIG. 4) is reported as “statistically very significant”.
As for secoisolariciresinol-diglycoside [SDG], the “Uterine weight (estrogen-like activity)” value in the assay on uterine weight was “increased the uterine weight at weaning”. The “Development of DMBA-induced breast cancer” value in [5] is reported as “prevented the development”. Also, the “Formation of chemically induced aberrant crypts” value in [6] is recorded as “inhibited”.
